Laboratory results reported in patent US20260274892A1, “MACROCYCLIC BROAD SPECTRUM ANTIBIOTICS” (RQx Pharmaceuticals, Inc., priority 2017, published 2026).

How the values were obtained:
[1] = tested on: Escherichia coli ATCC 25922; test: Minimum inhibitory concentration (MIC), CLSI broth micro-dilution, E. coli; format: cell-based; settings: Table 6, cation adjusted Mueller Hinton Broth + 0.002% Tween-80, 35° C.
How it was run: (§1)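 Antibacterial potency is measured as MIC by the CLSI broth dilution method. Bacteria at OD600 0.0005 in Tween-80-supplemented cation-adjusted Mueller Hinton broth face ten twofold compound dilutions for 22 h at 35° C.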

[2] = tested on: Methicillin Resistant Staphylococcus aureus strain USA 200; test: Minimum inhibitory concentration (MIC), CLSI broth micro-dilution, S. aureus; format: cell-based; settings: Table 6, MRSA USA 200, cation adjusted Mueller Hinton Broth + 0.002% Tween-80, 35° C., 22 hours
How it was run: as §1

[3] = Escherichia coli, ATCC25922, 22 h
[4] = Staphylococcus aureus, MRSA / USA200

| SMILES | MIC [1, 3] [µM] | MIC [2, 4] [µM] | MIC ([1]; 22 hours) [µM] | MIC [2] [µM] |
| --- | --- | --- | --- | --- |
| Cc1nc(-c2ccc(C(C)(C)C)cc2)c(Br)cc1C(=O)N[C@@H](CCN)C(=O)N(C)[C@@H]1C(=O)N[C@@H](C)C(=O)N[C@H](C(=O)NCC#N)Cc2ccc(OCCN)c(c2)-c2cc1ccc2OCCN (racemic) [Compound 401, rac-(8S,11S,14S)-3,18-bis(2-aminoethoxy)-N-(cyanomethyl)-11-methyl-14-[methyl-[rac-(2S)-4-amino-2-[[5-bromo-6-(4-tert-butylphenyl)-2-methyl-pyridine-3-carbonyl]amino]butanoyl]amino]-10,13-dioxo-9,12-diazatricyclo[13.3.1.12,6]icosa-1(18),2(20),3,5,15(19),16-hexaene-8-carboxamide] | 0.25 | 0.016 | – | – |
| Cc1nc(-c2ccc(OC3CCC(C)(C)CC3)cc2)nc(C)c1C(=O)N[C@@H](CCN)C(=O)N(C)[C@@H]1C(=O)N[C@@H](C)C(=O)N[C@H](C(=O)NCC#N)Cc2ccc(OCCN)c(c2)-c2cc1ccc2OCCN (racemic) [Compound 348, rac-(8S,11S,14S)-3,18-bis(2-aminoethoxy)-N-(cyanomethyl)-11-methyl-14-[methyl-[rac-(2S)-4-amino-2-[[2-[4-(4,4-dimethylcyclohexoxy)phenyl]-4,6-dimethyl-pyrimidine-5-carbonyl]amino]butanoyl]amino]-10,13-dioxo-9,12-diazatricyclo[13.3.1.12,6]icosa-1(18),2(20),3,5,15(19),16-hexaene-8-carboxamide] | 0.19 | 0.023 | – | – |
| CCCCCCOc1ccc2nc(C)c(C(=O)N[C@@H](CCN)C(=O)N(C)[C@@H]3C(=O)N[C@@H](C)C(=O)N[C@H](C(=O)NCC#N)Cc4ccc(OCCN)c(c4)-c4cc3ccc4OCCN)cc2c1 (racemic) [Compound 396, rac-(8S,11S,14S)-3,18-bis(2-aminoethoxy)-N-(cyanomethyl)-11-methyl-14-[methyl-[rac-(2S)-4-amino-2-[(6-hexoxy-2-methyl-quinoline-3-carbonyl)amino]butanoyl]amino]-10,13-dioxo-9,12-diazatricyclo[13.3.1.12,6]icosa-1(18),2(20),3,5,15(19),16-hexaene-8-carboxamide] | 0.5 | 0.016 | – | – |
| Cc1nc([C@H]2CC[C@H](C(C)(C)C)CC2)nc(C)c1C(=O)N[C@@H](CCN)C(=O)N(C)[C@@H]1C(=O)N[C@@H](C)C(=O)N[C@H](C(=O)NCC#N)Cc2ccc(OCCN)c(c2)-c2cc1ccc2OCCN [Compound 296, rac-(8S,11S,14S)-3,18-bis(2-aminoethoxy)-N-(cyanomethyl)-11-methyl-14-[methyl-[rac-(2S)-4-amino-2-[[2-(4-tert-butylcyclohexyl)-4,6-dimethyl-pyrimidine-5-carbonyl]amino]butanoyl]amino]-10,13-dioxo-9,12-diazatricyclo[13.3.1.12,6]icosa-1(18),2(20),3,5,15(19),16-hexaene-8-carboxamide] | 0.38 | 0.016 | – | – |
| Cc1nc(-c2ccc(C(C)(C)C)cc2)nc(C(C)C)c1C(=O)N[C@@H](CCN)C(=O)N(C)[C@@H]1C(=O)N[C@@H](C)C(=O)N[C@H](C(=O)NCC#N)Cc2ccc(OCCN)c(c2)-c2cc1ccc2OCCN [Compound 487] | 0.38 | 0.016 | – | – |
| CCCCCc1ccc(-c2ncc(C(=O)N[C@@H](CCNC(N)=O)C(=O)N(C)[C@@H]3C(=O)N[C@@H](C)C(=O)N[C@H](C(=O)NCC#N)Cc4ccc(OCCN)c(c4)-c4cc3ccc4OCCN)c(C)n2)cc1 (racemic) [Compound 451, rac-(8S,11S,14S)-3,18-bis(2-aminoethoxy)-N-(cyanomethyl)-11-methyl-14-[methyl-[rac-(2S)-2-[[4-methyl-2-(4-pentylphenyl)pyrimidine-5-carbonyl]amino]-4-ureido-butanoyl]amino]-10,13-dioxo-9,12-diazatricyclo[13.3.1.12,6]icosa-1(18),2(20),3,5,15(19),16-hexaene-8-carboxamide] | 0.76 | 0.047 | – | – |
| Cc1nc(-c2ccc(C(C)(C)C)cc2)nc(C)c1C(=O)NCC(=O)N[C@@H](CCN)C(=O)N(C)[C@@H]1C(=O)N[C@@H](C)C(=O)N[C@H](C(=O)NCC#N)Cc2ccc(OCCN)c(c2)-c2cc1ccc2OCCN (racemic) [Compound 470, rac-(8S,11S,14S)-3,18-bis(2-aminoethoxy)-N-(cyanomethyl)-11-methyl-14-[methyl-[rac-(2S)-4-amino-2-[[2-[[2-(4-tert-butylphenyl)-4,6-dimethyl-pyrimidine-5-carbonyl]amino]acetyl]amino]butanoyl]amino]-10,13-dioxo-9,12-diazatricyclo[13.3.1.12,6]icosa-1(18),2(20),3,5,15(19),16-hexaene-8-carboxamide] | 4 | 0.047 | – | – |
| CCCCc1ccc(C#Cc2nc(C)c(C(=O)N[C@@H](CCN)C(=O)N(C)[C@@H]3C(=O)N[C@@H](C)C(=O)N[C@H](C(=O)NCC#N)Cc4ccc(OCCN)c(c4)-c4cc3ccc4OCCN)c(C)n2)cc1 (racemic) [Compound 308, rac-(8S,11S,14S)-3,18-bis(2-aminoethoxy)-N-(cyanomethyl)-11-methyl-14-[methyl-[rac-(2S)-4-amino-2-[[2-[2-(4-butylphenyl)ethynyl]-4,6-dimethyl-pyrimidine-5-carbonyl]amino]butanoyl]amino]-10,13-dioxo-9,12-diazatricyclo[13.3.1.12,6]icosa-1(18),2(20),3,5,15(19),16-hexaene-8-carboxamide] | 0.096 | 0.012 | – | – |
| Cc1nc(-c2ccc(C=C3CCCC3)cc2)nc(C)c1C(=O)N[C@@H](CCN)C(=O)N(C)[C@@H]1C(=O)N[C@@H](C)C(=O)N[C@H](C(=O)NCC#N)Cc2ccc(OCCN)c(c2)-c2cc1ccc2OCCN (racemic) [Compound 274, rac-(8S,11S,14S)-3,18-bis(2-aminoethoxy)-N-(cyanomethyl)-11-methyl-14-[methyl-[rac-(2S)-4-amino-2-[[2-[4-(cyclopentylidenemethyl)phenyl]-4,6-dimethyl-pyrimidine-5-carbonyl]amino]butanoyl]amino]-10,13-dioxo-9,12-diazatricyclo[13.3.1.12,6]icosa-1(18),2(20),3,5,15(19),16-hexaene-8-carboxamide] | 0.063 | 0.023 | – | – |
| CCc1ccc(C#Cc2nc(C)c(C(=O)N[C@@H](CCN)C(=O)N(C)[C@@H]3C(=O)N[C@@H](C)C(=O)N[C@H](C(=O)NCC#N)Cc4ccc(OCCN)c(c4)-c4cc3ccc4OCCN)c(C)n2)cc1 (racemic) [Compound 307, rac-(8S,11S,14S)-3,18-bis(2-aminoethoxy)-N-(cyanomethyl)-11-methyl-14-[methyl-[rac-(2S)-4-amino-2-[[2-[2-(4-ethylphenyl)ethynyl]-4,6-dimethyl-pyrimidine-5-carbonyl]amino]butanoyl]amino]-10,13-dioxo-9,12-diazatricyclo[13.3.1.12,6]icosa-1(18),2(20),3,5,15(19),16-hexaene-8-carboxamide] | 0.2 | 0.033 | – | – |
| CC(C)=Cc1ccc(C#Cc2nc(C)c(C(=O)N[C@@H](CCN)C(=O)N(C)[C@@H]3C(=O)N[C@@H](C)C(=O)N[C@H](C(=O)NCC#N)Cc4ccc(OCCN)c(c4)-c4cc3ccc4OCCN)c(C)n2)cc1 (racemic) [Compound 313, rac-(8S,11S,14S)-3,18-bis(2-aminoethoxy)-N-(cyanomethyl)-11-methyl-14-[methyl-[rac-(2S)-4-amino-2-[[4,6-dimethyl-2-[2-[4-(2-methylprop-1-enyl)phenyl]ethynyl]pyrimidine-5-carbonyl]amino]butanoyl]amino]-10,13-dioxo-9,12-diazatricyclo[13.3.1.12,6]icosa-1(18),2(20),3,5,15(19),16-hexaene-8-carboxamide] | 0.13 | 0.016 | – | – |
| Cc1nc(C#CC(C)C)ncc1C(=O)N[C@@H](CCN)C(=O)N(C)[C@@H]1C(=O)N[C@@H](C)C(=O)N[C@H](C(=O)NCC#N)Cc2ccc(OCCN)c(c2)-c2cc1ccc2OCCN (racemic) [Compound 229, rac-(8S,11S,14S)-3,18-bis(2-aminoethoxy)-N-(cyanomethyl)-11-methyl-14-[methyl-[rac-(2S)-4-amino-2-[[4-methyl-2-(3-methylbut-l-ynyl)pyrimidine-5-carbonyl]amino]butanoyl]amino]-10,13-dioxo-9,12-diazatricyclo[13.3.1.12,6]icosa-1(18),2(20),3,5,15(19),16-hexaene-8-carboxamide] | – | – | 4.6 | 0.57 |
| CCCCCCc1cnc2cc(C(=O)N[C@@H](CCN)C(=O)N(C)[C@@H]3C(=O)N[C@@H](C)C(=O)N[C@H](C(=O)NCC#N)Cc4ccc(OCCN)c(c4)-c4cc3ccc4OCCN)c(C)nc2c1 (racemic) [Compound 398, rac-(8S,11S,14S)-3,18-bis(2-aminoethoxy)-N-(cyanomethyl)-11-methyl-14-[methyl-[rac-(2S)-4-amino-2-[(7-hexyl-2-methyl-1,5-naphthyridine-3-carbonyl)amino]butanoyl]amino]-10,13-dioxo-9,12-diazatricyclo[13.3.1.12,6]icosa-1(18),2(20),3,5,15(19),16-hexaene-8-carboxamide] | 0.27 | 0.025 | – | – |
| Cc1nc(-c2ccc(CC3CCCC3)cc2)ncc1C(=O)N[C@@H](CCN)C(=O)N(C)[C@@H]1C(=O)N[C@@H](C)C(=O)N[C@H](C(=O)NCC#N)Cc2ccc(OCCN)c(c2)-c2cc1ccc2OCCN (racemic) [Compound 218, rac-(8S,11S,14S)-3,18-bis(2-aminoethoxy)-N-(cyanomethyl)-11-methyl-14-[methyl-[rac-(2S)-4-amino-2-[[2-[4-(cyclopentylmethyl)phenyl]-4-methyl-pyrimidine-5-carbonyl]amino]butanoyl]amino]-10,13-dioxo-9,12-diazatricyclo[13.3.1.12,6]icosa-1(18),2(20),3,5,15(19),16-hexaene-8-carboxamide] | 0.097 | 0.012 | – | – |
